Assay results taken from patent EP2607478A1, “Phenanthroline treated MSC” (Universiteit Twente, priority 2011, dated 2013).
Entries after “also recorded” stand apart in the source; their conditions may differ.

System: MSCs
Assay: Whole genome expression analysis (Illumina microarray) of treated MSCs
Type: cell-based, Human
Protocol: MSCs were seeded in T25 flasks at 5000 cells/cm^2 and allowed to attach overnight in proliferation medium. […] After 48 hours, RNA was isolated as described above. From 500 ng of RNA, cRNA was synthesized using the Illumina TotalPrep RNA amplification Kit (Ambion), according to the manufacturer's protocol and the quality of RNA and cRNA was verified on a Bioanalyzer 2100 (Agilent). Microarrays were performed using Illumina HT-12 v4 expression Beadchips, according to the manufacturer's protocol. Briefly, 750 ng of cRNA was hybridized on the array overnight after which the array was washed and blocked. Then, by addition of streptavidin Cy-3 a fluorescent signal was developed. Arrays were scanned on an Illumina iScan reader and raw intensity values were background corrected in GenomeStudio (Illumina). Further data processing and statistical testing were performed with R and Bioconductor statistical software (www.bioconductor.org), using package lumi. Raw intensity values were transformed using variance stabilization and a quantile normalization was performed. A linear modelling approach with empirical Bayesian methods, as implemented in Limma package (54), was applied for differential expression analysis of the resulting probe-level expression values. A gene list, containing only those genes with an absolute 1.5-fold change between different treatments, was uploaded to Ingenuity Pathway Analysis (IPA) software and used for core analysis. Pathways or networks with a p-value of 0.05 were considered statistically significant.

## c1cnc2c(c1)ccc1cccnc12 [PHE, 1, 10-phenanthroline]
MSCs treated for two days, 150 µM DFO or 200 µM PHE
  interleukin-8 (Il-8) gene expression: highly induced
MSCs treated for two days, 150 µM DFO or 200 µM PHE, relative to basic medium
  expression of HRE-containing genes (metabolism, cell growth and survival, endothelial genes): most genes were strongest induced; also recorded: markedly induced higher expression
PHE compared to hypoxia or DFO-treated cells
  expression of RelA: higher
PHE-treated cells
  expression of P300: higher expression
ProbeID ILMN 2045419
  logFC(D142_PHE - D142_BAS) BNIP3L: 2,33
ProbeID ILMN 3188106
  logFC(D142_PHE - D142_BAS) CYTH2: 2,19
ProbeID ILMN_1651496
  logFC(D142_PHE - D142_BAS) HIST1H2BD: 3,85
ProbeID ILMN_1651958
  logFC(D142_PHE - D142_BAS) MGP: -2,09
ProbeID ILMN_1653292
  logFC(D142_PHE - D142_BAS) PFKFB4: 4,21
ProbeID ILMN_1653466
  logFC(D142_PHE - D142_BAS) HES4: 2,11
ProbeID ILMN_1655796
  logFC(D142_PHE - D142_BAS): 2,37
ProbeID ILMN_1655930
  logFC(D142_PHE - D142_BAS) ELL2: 2,00
ProbeID ILMN_1656057, PHE vs BAS
  logFC(D142_PHE - D142_BAS) PLAU: -3,95
ProbeID ILMN_1656501
  logFC(D142_PHE - D142_BAS) DUSP5: 3,07
ProbeID ILMN_1657683, PHE vs BAS
  logFC(D142_PHE - D142_BAS) C1orf198: -2,35
ProbeID ILMN_1657796
  logFC(D142_PHE - D142_BAS) STMN1: -2,32
ProbeID ILMN_1657962
  logFC(D142_PHE - D142_BAS) LOC728946: -2,02
ProbeID ILMN_1659027
  logFC(D142_PHE - D142_BAS) SLC2A1: 4,08
ProbeID ILMN_1659047
  logFC(D142_PHE - D142_BAS) HIST2H2AA3: 3,78
ProbeID ILMN_1659936
  logFC(D142_PHE - D142_BAS) PPP1R15A: 2,65
ProbeID ILMN_1659990
  logFC(D142_PHE - D142_BAS) C7orf68: 3,65
ProbeID ILMN_1660654
  logFC(D142_PHE - D142_BAS) CDCA2: 2,66
ProbeID ILMN_1660847
  logFC(D142_PHE - D142_BAS) PFKFB3: 3,69
ProbeID ILMN_1661346
  logFC(D142_PHE - D142_BAS) LOC648210: -2,02
ProbeID ILMN_1661599
  logFC(D142_PHE - D142_BAS) DDIT4: 4,48
ProbeID ILMN_1662619
  logFC(D142_PHE - D142_BAS) TFPI: 2,06
ProbeID ILMN_1663390, PHE vs BAS
  logFC(D142_PHE - D142_BAS) CDC20: -2,55
ProbeID ILMN_1663575, PHE vs BAS
  logFC(D142_PHE - D142_BAS) MGC87042: -2,77
ProbeID ILMN_1664855
  logFC(D142_PHE - D142_BAS) PPP1R14C: 2,96
ProbeID ILMN_1665510
  logFC(D142_PHE - D142_BAS) ERRFI1: 3,36
ProbeID ILMN_1666022
  logFC(D142_PHE - D142_BAS) TNFRSF10D: 3,48
ProbeID ILMN_1666305, PHE vs BAS
  logFC(D142_PHE - D142_BAS) CDKN3: -2,37
ProbeID ILMN_1666545
  logFC(D142_PHE - D142_BAS) GCNT1: -2,01
ProbeID ILMN_1666733
  logFC(D142_PHE - D142_BAS) IL8: 5,35
ProbeID ILMN_1667692
  logFC(D142_PHE - D142_BAS) PTGIS: -2,11
ProbeID ILMN_1667791
  logFC(D142_PHE - D142_BAS) PPFIA4: 2,71
ProbeID ILMN_1667893, PHE vs BAS
  logFC(D142_PHE - D142_BAS) TNS3: -2,61
ProbeID ILMN_1668345
  logFC(D142_PHE - D142_BAS) OAF: -2,06
ProbeID ILMN_1668861
  logFC(D142_PHE - D142_BAS) LOC732165: 2,33
ProbeID ILMN_1669119, PHE vs BAS
  logFC(D142_PHE - D142_BAS) LOC728946: -2,56
ProbeID ILMN_1669584
  logFC(D142_PHE - D142_BAS) ILF3: -2,03
ProbeID ILMN_1671478
  logFC(D142_PHE - D142_BAS) CKB: 2,73
ProbeID ILMN_1671703, PHE vs BAS
  logFC(D142_PHE - D142_BAS) ACTA2: -3,04
ProbeID ILMN_1671731
  logFC(D142_PHE - D142_BAS) AVPI1: 2,16
ProbeID ILMN_1672350
  logFC(D142_PHE - D142_BAS) JAM2: 2,37
ProbeID ILMN_1673521
  logFC(D142_PHE - D142_BAS) KISS1R: 3,05
ProbeID ILMN_1674243
  logFC(D142_PHE - D142_BAS) TFRC: 2,40
ProbeID ILMN_1674376
  logFC(D142_PHE - D142_BAS) ANGPTL4: 2,49
ProbeID ILMN_1675062
  logFC(D142_PHE - D142_BAS) MYL9: -2,11
ProbeID ILMN_1675947
  logFC(D142_PHE - D142_BAS) MT3: 4,91
ProbeID ILMN_1676088, PHE vs BAS
  logFC(D142_PHE - D142_BAS) MSRB3: -2,43
ProbeID ILMN_1676629
  logFC(D142_PHE - D142_BAS) INSIG2: 2,16
ProbeID ILMN_1676663, PHE vs BAS
  logFC(D142_PHE - D142_BAS) TNFRSF11B: -3,04
ProbeID ILMN_1676899
  logFC(D142_PHE - D142_BAS) YEATS2: 2,21
ProbeID ILMN_1677511
  logFC(D142_PHE - D142_BAS) PTGS2: 2,13
ProbeID ILMN_1678493, PHE vs BAS
  logFC(D142_PHE - D142_BAS) CHN1: -2,73
ProbeID ILMN_1678842
  logFC(D142_PHE - D142_BAS) THBS2: -2,24
ProbeID ILMN_1679041
  logFC(D142_PHE - D142_BAS) SLC3A2: 2,15
ProbeID ILMN_1679727
  logFC(D142_PHE - D142_BAS) CLK1: 2,72
ProbeID ILMN_1680139
  logFC(D142_PHE - D142_BAS) MAFF: 3,87
ProbeID ILMN_1680738, PHE vs BAS
  logFC(D142_PHE - D142_BAS) C5orf13: -2,41
ProbeID ILMN_1682599
  logFC(D142_PHE - D142_BAS) GPRC5A: 4,51
ProbeID ILMN_1682717
  logFC(D142_PHE - D142_BAS) IER3: 2,62
ProbeID ILMN_1683179
  logFC(D142_PHE - D142_BAS) RRAD: 2,75
ProbeID ILMN_1684114
  logFC(D142_PHE - D142_BAS) LOC286016: 2,09
ProbeID ILMN_1684158
  logFC(D142_PHE - D142_BAS) GPT2: 2,19
ProbeID ILMN_1684554
  logFC(D142_PHE - D142_BAS) COL16A1: -2,06
ProbeID ILMN_1685441, PHE vs BAS
  logFC(D142_PHE - D142_BAS) ASAP3: -2,35
ProbeID ILMN_1685714
  logFC(D142_PHE - D142_BAS) INHBB: 3,60
ProbeID ILMN_1686097, PHE vs BAS
  logFC(D142_PHE - D142_BAS) TOP2A: -3,07
ProbeID ILMN_1686116, PHE vs BAS
  logFC(D142_PHE - D142_BAS) THBS1: -3,00
ProbeID ILMN_1687301, PHE vs BAS
  logFC(D142_PHE - D142_BAS) VCAN: -2,38
ProbeID ILMN_1687751
  logFC(D142_PHE - D142_BAS) BAALC: -2,07
ProbeID ILMN_1689088, PHE vs BAS
  logFC(D142_PHE - D142_BAS) COLEC12: -3,75
ProbeID ILMN_1689111, PHE vs BAS
  logFC(D142_PHE - D142_BAS) CXCL12: -3,44
ProbeID ILMN_1689274
  logFC(D142_PHE - D142_BAS) NIPA1: 2,08
ProbeID ILMN_1690105
  logFC(D142_PHE - D142_BAS) STAT1: -2,04
ProbeID ILMN_1690125, PHE vs BAS
  logFC(D142_PHE - D142_BAS) PDLIM7: -2,57
ProbeID ILMN_1690921
  logFC(D142_PHE - D142_BAS) STAT2: -2,24
ProbeID ILMN_1691364, PHE vs BAS
  logFC(D142_PHE - D142_BAS) STAT1: -2,77
ProbeID ILMN_1691476, PHE vs BAS
  logFC(D142_PHE - D142_BAS) MYLK: -3,27
ProbeID ILMN_1691884
  logFC(D142_PHE - D142_BAS) STC2: 3,81
ProbeID ILMN_1692785
  logFC(D142_PHE - D142_BAS) KLHL21: 2,54
ProbeID ILMN_1692938
  logFC(D142_PHE - D142_BAS) PSAT1: 2,74
ProbeID ILMN_1693334
  logFC(D142_PHE - D142_BAS) P4HA1: 3,46
ProbeID ILMN_1694240
  logFC(D142_PHE - D142_BAS) MAP2K1: 2,11
ProbeID ILMN_1694810
  logFC(D142_PHE - D142_BAS) PANX2: 2,42
ProbeID ILMN_1695658, PHE vs BAS
  logFC(D142_PHE - D142_BAS) KIF20A: -3,25
ProbeID ILMN_1696537
  logFC(D142_PHE - D142_BAS) DDIT4L: -2,12
ProbeID ILMN_1696601
  logFC(D142_PHE - D142_BAS) VARS: -2,08
ProbeID ILMN_1699265
  logFC(D142_PHE - D142_BAS) TNFRSF10B: 2,54
ProbeID ILMN_1699644
  logFC(D142_PHE - D142_BAS): 2,20
